Source: patent publication US7576128B2 (priority 2004, dated 2009)
Like-named read-outs stand apart in the source and are kept apart here.

Columns and labels:
[1] = target: T1, hAR (human androgen receptor) (Homo sapiens, UniProt P10275); test: Competitive binding analysis on baculovirus/Sf9 generated hAR extracts with 3H-DHT tracer
T1 construct: made in house; host or cells: baculovirus/Sf9 insect cells
T1 sequence (P10275 1-920): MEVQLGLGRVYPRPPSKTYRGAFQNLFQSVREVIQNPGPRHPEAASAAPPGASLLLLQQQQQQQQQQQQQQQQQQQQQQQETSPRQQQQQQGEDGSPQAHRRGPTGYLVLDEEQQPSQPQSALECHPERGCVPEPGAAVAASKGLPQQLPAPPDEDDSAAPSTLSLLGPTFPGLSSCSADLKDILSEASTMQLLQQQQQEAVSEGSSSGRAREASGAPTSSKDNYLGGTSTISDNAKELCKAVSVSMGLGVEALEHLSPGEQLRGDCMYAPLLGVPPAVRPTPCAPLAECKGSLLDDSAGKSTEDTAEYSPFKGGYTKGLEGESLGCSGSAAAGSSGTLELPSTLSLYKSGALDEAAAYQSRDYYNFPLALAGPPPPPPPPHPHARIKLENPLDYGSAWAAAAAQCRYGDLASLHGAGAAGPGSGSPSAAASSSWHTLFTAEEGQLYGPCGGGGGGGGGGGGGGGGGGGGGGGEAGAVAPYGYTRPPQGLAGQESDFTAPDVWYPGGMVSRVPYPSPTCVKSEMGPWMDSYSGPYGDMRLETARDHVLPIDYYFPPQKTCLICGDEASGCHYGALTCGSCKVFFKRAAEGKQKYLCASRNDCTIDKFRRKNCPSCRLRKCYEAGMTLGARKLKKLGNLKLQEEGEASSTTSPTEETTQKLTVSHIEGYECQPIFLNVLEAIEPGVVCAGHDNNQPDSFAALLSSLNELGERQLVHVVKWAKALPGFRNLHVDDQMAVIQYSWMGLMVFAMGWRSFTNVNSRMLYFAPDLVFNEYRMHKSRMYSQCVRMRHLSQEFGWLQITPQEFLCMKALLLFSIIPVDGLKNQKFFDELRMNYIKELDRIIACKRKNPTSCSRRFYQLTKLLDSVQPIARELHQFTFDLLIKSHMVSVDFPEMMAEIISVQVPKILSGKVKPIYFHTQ
Description: The description below describes how the assay was carried out.
Competitive binding analysis was performed on baculovirus/Sf9 generated hAR extracts in the presence or absence of different concentrations of test agent and a fixed concentration of ^3H-dihydrotestosterone (^3H-DHT) as tracer. This binding assay method is a modification of a protocol previously described (Liao S., et. al. J. Steroid Biochem. 20:11-17 1984). Briefly, progressively decreasing concentrations of compounds are incubated in the presence of hAR extract (Chang et al. P.N.A.S. Vol. 89, pp. 5546-5950,1992), hydroxylapatite, and 1 nM ^3 H-DHT for one hour at 4° C. Subsequently, the binding reactions are washed three times to completely remove excess unbound ^3 H-DHT. hAR bound ^3H-DHT levels are determined in the presence of compounds (=i.e competitive binding) and compared to levels bound when no competitor is present (=i.e. maximum binding). Compound binding affinity to the hAR is expressed as the concentration of compound at which one half of the maximum binding is inhibited.

[2] = tested on: male Syrian hamsters; test: Animal model for inhibition of sebum production (hamster ear, HPLC of sebum components); assay type: in vivo; details: for % Reduction in CE: cholesterol ester; for % Reduction in CE / % Reduction in WE: 3 w/v% topical twice daily, five days a week, 4 weeks, difference from vehicle control; for Sum CE + WE: summation of CE and WE reductions; for % Reduction in WE: wax ester
Description: Luderschmidt et al describes an animal model for testing whether compounds are capable of modulating sebum secretion. Arch. Derm. Res. 258, 185-191 (1977). This model uses male Syrian hamsters, whose ears contain sebaceous glands. Selected compounds produced above were screened in this model.
Testing for sebum inhibition was carried out in the following manner. Male Syrian hamsters aged 9 to 10 weeks were introduced into the laboratory environment and acclimated for 2 weeks prior to use in the study. Each group consisted of 5 animals and were run in parallel with vehicle and positive controls. Prior to administration, 30mg of each compound was dissolved in 1 mL of Universal solvent (ethanol/propylene glycol (70/30%v/v) to achieve a final concentration of 3 w/v%.
Animals were dosed topically twice daily, five days a week, for 4 weeks. Each dose consisted of 25 micro liters of vehicle control or drug. The dose was applied to the ventral surfaces of both the right and left ears. All animals were sacrificed approximately 18-24 hours after the final dose. The right ears were collected from each animal and used for sebum analysis.
The ears were prepped for HPLC analysis in the following manner. One 8mm distal biopsy punch was taken, just above the anatomical “V” mark in the ear to normalize the sample area. The punch was pulled apart. The ventral biopsy surface (the area where the topical dose was directly applied to the sebaceous glands) was retained for testing and the dorsal surface of the biopsy punch was discarded.
HPLC analysis was carried out on an extract of the tissue sample. Tissue samples were contacted with 3ml of solvent (a 4:1 admixture of 2,2,4-trimethylpentane and isopropyl alcohol). The mixture was shaken for 15 minutes and stored overnight at room temperature, protected from light. The next morning 1 milliliter of water was added to the sample and shaken for 15 minutes. The sample was then centrifuged at approximately 1500 rpm for 15 minutes. Two ml of the organic phase (top layer) was transferred to a glass vial, dried at 37° C., under nitrogen, for approximately 1 hour, and then lyophilized for approximately 48 hours. The samples were then removed from the lyophilizer and each vial was reconstituted with 600 μl of solvent A (trimethylpentane/tetrahydrofuran (99:1). The samples were then recapped and vortexed for 5 minutes.
The results are reported as the reduction in cholesterol ester (CE) and wax ester (WE) production, when compared to the vehicle control.
Columns 1 and 2 identify the compound by structure and Example number. Columns 3 through 5 show the effect the compounds had on the -reduction of sebum components (CE and WE). The results are expressed as the difference from the vehicle control. A positive number reflects a decrease in the production of the sebum component being measured, i.e. cholesterol ester (CE) or wax ester (WE).

| SMILES | IC50 ([1]; hAR extract, 1 nM 3H-DHT, one hour at 4° C., mean of multiple tests, read-out: AR Binding IC50) | % Reduction in CE [2] | Sum CE + WE [2] | % Reduction in WE [2] | IC50 [1] |
| --- | --- | --- | --- | --- | --- |
| CCCCC(COc1ccc(C#N)c(C(F)(F)F)c1)C(C)O (centres unmarked) [Example 15, 4-[2-(1-Hydroxy-ethyl)-hexyloxy]-2-tri-fluoromethyl-benzonitrile] | 210 nM | 54% | 128% | 74% |  |
| C[C@H](O)CC[C@H](C)Oc1ccc(C#N)c(C(F)(F)F)c1 [Example 23, (1S,4S)-4-(4-Hy-droxy-1-methylpentyl-oxy)-2-tri-fluoromethyl-benzonitrile] |  | 67% | 154% | 87% | 41 nM |
